How the values were obtained:
Kv1.3 potassium channel = Kv1.3 potassium channel (Homo sapiens (Human), UniProt P22001); assay: Kv1.3 potassium channel blocker activity, automated whole-cell patch clamp in CHO-K1 cells stably expressing Kv1.3; type: cell-based; settings: Patchliner patch clamp
Protocol: Example 21. Evaluation of Kv1.3 Potassium Channel Blocker Activities
This assay is used to evaluate the disclosed compounds' activities as Kv1.3 potassium channel blockers.
CHO-K1 cells stably expressing Kv1.3 were grown in DMEM containing 10% heat-inactivated FBS, 1 mM sodium pyruvate, 2 mM L-glutamine, and G418 (500 μg/ml). Cells were grown in culture flasks at 37° C. in a 5% C02-humidified incubator.
(§1) The cells were bathed in an extracellular solution containing 140 mM NaCl, 4 mM KCl, 2 mM CaCl2), 1 mM MgCl2, 5 mM glucose, 10 mM HEPES; pH adjusted to 7.4 with NaOH; 295-305 mOsm. The internal solution contained 50 mM KCl, 10 mM NaCl, 60 mM KF, 20 mM EGTA, 10 mM HEPES; pH adjusted to 7.2 with KOH; 285 mOsm. All compounds were dissolved in DMSO at 30 mM. Compound stock solutions were freshly diluted with external solution to concentrations of 30 nM, 100 nM, 300 nM, 1 μM, 3 μM, 10 μM, 30 μM and 100 μM. The highest content of DMSO (0.3%) was present in 100 μM.
The currents were evoked by applying 100 ms depolarizing pulses from −90 mV (holding potential) to +40 mV were applied with 0.1 Hz frequency. Control (compound-free) and compound pulse trains for each compound concentration applied contained 20 pulses. 10-second breaks were used between pulse trains (see Table A below).
Whole-cell current recordings and compound application were enabled by means of an automated patch clamp platform Patchliner (Nanion Technologies GmbH). EPC 10 patch clamp amplifier (HEKA Elektronik Dr. Schulze GmbH) along with Patchmaster software (HEKA Elektronik Dr. Schulze GmbH) was used for data acquisition. Data were sampled at 10 kHz without filtering. Passive leak currents were subtracted online using a P/4 procedure (HEKA Elektronik Dr. Schulze GmbH). Increasing compound concentrations were applied consecutively to the same cell without washouts in between. Total compound incubation time before the next pulse train was not longer than 10 seconds. Peak current inhibition was observed during compound equilibration.
(§2) AUC and peak values were obtained with Patchmaster (HEKA Elektronik Dr. Schulze GmbH). To determine IC50, the last single pulse in the pulse train corresponding to a given compound concentration was used. Obtained AUC and peak values in the presence of compound were normalized to control values in the absence of compound. Using Origin (OridinLab), IC50 was derived from data fit to Hill equation: Icompound/Icontrol=(100-A)/(1+([compound]/IC50)nH)+A, where IC50 value is the concentration at which current inhibition is half-maximal, [compound] is the applied compound concentration, A is the fraction of current that is not blocked and nH is the Hill coefficient.

hERG channel = hERG channel (Homo sapiens (Human), UniProt Q12809); assay: hERG electrophysiology, automated whole-cell patch clamp in CHO-K1 cells stably expressing hERG; type: cell-based; settings: Patchliner patch clamp
Chain of hERG channel (Q12809 whole entry): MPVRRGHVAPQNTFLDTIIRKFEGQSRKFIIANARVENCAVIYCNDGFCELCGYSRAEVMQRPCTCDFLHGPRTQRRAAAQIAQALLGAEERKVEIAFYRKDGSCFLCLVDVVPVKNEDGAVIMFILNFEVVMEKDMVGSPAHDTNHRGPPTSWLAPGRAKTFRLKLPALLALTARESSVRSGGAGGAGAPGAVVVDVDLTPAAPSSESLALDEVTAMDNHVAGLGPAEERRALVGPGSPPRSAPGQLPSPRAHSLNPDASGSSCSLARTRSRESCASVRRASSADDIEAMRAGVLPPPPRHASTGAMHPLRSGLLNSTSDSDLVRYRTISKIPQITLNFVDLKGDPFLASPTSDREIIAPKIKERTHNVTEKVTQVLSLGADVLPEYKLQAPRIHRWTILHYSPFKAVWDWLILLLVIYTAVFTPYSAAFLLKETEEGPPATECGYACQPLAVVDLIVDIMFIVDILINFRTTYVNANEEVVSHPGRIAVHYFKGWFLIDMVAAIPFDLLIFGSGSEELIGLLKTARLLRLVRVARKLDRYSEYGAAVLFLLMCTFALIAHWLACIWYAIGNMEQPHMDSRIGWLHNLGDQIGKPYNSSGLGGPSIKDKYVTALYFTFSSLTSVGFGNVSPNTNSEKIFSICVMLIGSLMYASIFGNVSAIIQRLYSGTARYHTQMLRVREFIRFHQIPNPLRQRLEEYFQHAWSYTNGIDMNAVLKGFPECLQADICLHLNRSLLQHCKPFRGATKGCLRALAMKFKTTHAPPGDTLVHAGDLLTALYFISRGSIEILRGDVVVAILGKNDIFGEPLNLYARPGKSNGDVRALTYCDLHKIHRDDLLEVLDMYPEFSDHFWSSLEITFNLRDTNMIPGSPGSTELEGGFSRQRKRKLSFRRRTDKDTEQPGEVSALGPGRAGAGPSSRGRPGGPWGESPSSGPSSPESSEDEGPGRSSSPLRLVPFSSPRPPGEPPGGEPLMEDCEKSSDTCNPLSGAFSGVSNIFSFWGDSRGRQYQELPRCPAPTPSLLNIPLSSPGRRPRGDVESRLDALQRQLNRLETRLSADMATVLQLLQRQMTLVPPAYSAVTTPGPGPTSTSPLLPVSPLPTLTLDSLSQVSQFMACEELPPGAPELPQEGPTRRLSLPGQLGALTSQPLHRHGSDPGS
Protocol: Example 22. Evaluation of hERG Activities
This assay is used to evaluate the disclosed compounds's inhibition activities against the hERG channel.
This assay is used to evaluate the disclosed compounds' inhibition activities against the hERG channel.
CHO-K1 cells stably expressing hERG were grown in Ham's F-12 Medium with glutamine containing 10% heat-inactivated FBS, 1% penicillin/streptomycin, hygromycin (100 μg/ml) and G418 (100 μg/ml). Cells were grown in culture flasks at 37° C. in a 5% CO2— humidified incubator.
as §1, with “Glucose,” for “glucose,”
The voltage protocol (see Table B) was designed to simulate voltage changes during a cardiac action potential with a 300 ms depolarization to +20 mV (analogous to the plateau phase of the cardiac action potential), a repolarization for 300 ms to −50 mV (inducing a tail current) and a final step to the holding potential of −80 mV. The pulse frequency was 0.3 Hz. Control (compound-free) and compound pulse trains for each compound concentration applied contained 70 pulses.
Whole-cell current recordings and compound application were enabled by means of an automated patch clamp platform Patchliner (Nanion). EPC 10 patch clamp amplifier (HEKA) along with Patchmaster software (HEKA Elektronik Dr. Schulze GmbH) was used for data acquisition. Data were sampled at 10 kHz without filtering. Increasing compound concentrations were applied consecutively to the same cell without washouts in between.
as §2, with “PEAK” for “peak”, “IC50” for “IC50,”, “Icompound/Icontrol=(100−A)/(1+([compound]/IC50)nH)+A,” for “Icompound/Icontrol=(100-A)/(1+([compound]/IC50)nH)+A,”, “IC50” for “IC50 value”

Chain of Kv1.3 potassium channel (P22001 whole entry): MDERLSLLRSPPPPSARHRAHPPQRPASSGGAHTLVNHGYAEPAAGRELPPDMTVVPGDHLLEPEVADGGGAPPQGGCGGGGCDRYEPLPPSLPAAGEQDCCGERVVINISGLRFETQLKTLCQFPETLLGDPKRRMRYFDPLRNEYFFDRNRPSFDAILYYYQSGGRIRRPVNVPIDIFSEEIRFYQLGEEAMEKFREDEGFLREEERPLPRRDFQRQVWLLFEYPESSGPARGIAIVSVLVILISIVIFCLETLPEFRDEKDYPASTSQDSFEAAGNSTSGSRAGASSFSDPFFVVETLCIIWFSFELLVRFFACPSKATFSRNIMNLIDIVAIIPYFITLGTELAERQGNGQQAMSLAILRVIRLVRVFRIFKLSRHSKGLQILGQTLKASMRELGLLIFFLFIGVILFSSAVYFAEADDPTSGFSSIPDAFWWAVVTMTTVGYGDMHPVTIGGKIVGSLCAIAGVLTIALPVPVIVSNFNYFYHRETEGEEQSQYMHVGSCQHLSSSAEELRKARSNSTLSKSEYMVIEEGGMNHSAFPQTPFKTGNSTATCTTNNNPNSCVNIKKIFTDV

SMILES | IC50 (Kv1.3 potassium channel) | IC50 (hERG channel)
O=C(C[C@H]1CN[C@@H](c2c(O)ccc(Cl)c2Cl)C1)N1CC(O)(CO)C1 [Compound 43, 2-((3S,5R)-5-(2,3-dichloro-6-hydroxyphenyl)pyrrolidin-3-yl)-1-(3-hydroxy-3-(hydroxymethyl)azetidin-1-yl)ethan-1-one] | < 0.1 µM | > 100 µM
O=C(C[C@H]1CN[C@@H](c2c(O)ccc(Cl)c2Cl)C1)N1CC(O)C1 [Compound 56, 2-((3S,5R)-5-(2,3-dichloro-6-hydroxyphenyl)pyrrolidin-3-yl)-1-(3-hydroxyazetidin-1-yl)ethan-1-one] | < 0.1 µM | > 100 µM
CNC(=O)CC1CN[C@@H](c2c(O)ccc(Cl)c2Cl)C1 (stereo partly drawn) [Compound 36, 2-((5R)-5-(2,3-dichloro-6-hydroxyphenyl)pyrrolidin-3-yl)-N-methylacetamide] | < 0.1 µM | > 30 µM
O=C(CO)NC[C@H]1CN[C@@H](c2c(O)ccc(Cl)c2Cl)C1 [Compound 49, N-(((3R,5R)-5-(2,3-dichloro-6-hydroxyphenyl)pyrrolidin-3-yl)methyl)-2-hydroxyacetamide] | < 1 µM | > 100 µM
O=C(C[C@H]1CN[C@@H](c2c(O)ccc(Cl)c2Cl)C1)N1CC[C@H]1CO [Compound 68, 2-((3S,5R)-5-(2,3-dichloro-6-hydroxyphenyl)pyrrolidin-3-yl)-1-((S)-2-(hydroxymethyl)azetidin-1-yl)ethan-1-one] | < 1 µM | > 100 µM
O=C(CC1CN[C@@H](c2c(O)ccc(Cl)c2Cl)C1)NCCO (stereo partly drawn) [Compound 34, 2-((5R)-5-(2,3-dichloro-6-hydroxyphenyl)pyrrolidin-3-yl)-N-(2-hydroxyethyl)acetamide] | < 0.1 µM | > 100 µM
NC(=O)C(CO)[C@H]1CN[C@@H](c2c(O)ccc(Cl)c2Cl)C1 (single isomer, unassigned) [Compound 77] | < 0.1 µM | > 100 µM
O=C(CC1CN[C@@H](c2c(O)ccc(Cl)c2Cl)C1)N1CC[C@@H](O)C1 (stereo partly drawn) [Compound 39, 2-((5R)-5-(2,3-dichloro-6-hydroxyphenyl)pyrrolidin-3-yl)-1-((R)-3-hydroxypyrrolidin-1-yl)ethan-1-one] | < 0.1 µM | > 100 µM
CC(C)(CO)NC(=O)C[C@H]1CN[C@@H](c2c(O)ccc(Cl)c2Cl)C1 [Compound 71, 2-((3S,5R)-5-(2,3-dichloro-6-hydroxyphenyl)pyrrolidin-3-yl)-N-(1-hydroxy-2-methylpropan-2-yl)acetamide] | < 1 µM | > 100 µM
NC(=O)C[C@@H]1CC[C@H](c2c(O)ccc(Cl)c2Cl)N1 [Compound 53, 2-((2S,5R)-5-(2,3-dichloro-6-hydroxyphenyl)pyrrolidin-2-yl)acetamide] | < 1 µM | > 100 µM
CC1(O)CN(C(=O)C[C@H]2CN[C@@H](c3c(O)ccc(Cl)c3Cl)C2)C1 [Compound 61, 2-((3S,5R)-5-(2,3-dichloro-6-hydroxyphenyl)pyrrolidin-3-yl)-1-(3-hydroxy-3-methylazetidin-1-yl)ethan-1-one] | < 0.1 µM | > 100 µM

Reference: patent US20240368078A1, “ARYL HETEROCYCLIC COMPOUNDS AS Kv1.3 POTASSIUM SHAKER CHANNEL BLOCKERS” (D.E. SHAW RESEARCH, LLC, priority 2021, published 2024)
